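Exposure lasted 48 hours, with cells grown in 96-well plates and compounds tested at five concentrations. Abbreviation: GI50, concentration required for 50% inhibition of growth. The concentration for full growth arrest is given as TGI.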
Assays:
Test in all cases: inhibition of tumour cell growth, NCI panel, 48 h
RXF 393 renal = tested on: RXF 393 renal
OVCAR-4 ovarian = tested on: OVCAR-4 ovarian
K-562 leukemia = tested on: K-562 leukemia
HCT-15 colon = tested on: HCT-15 colon
NCI-H226 lung = tested on: NCI-H226 lung
NCI-H522 lung = tested on: NCI-H522 lung
ACHN renal = tested on: ACHN renal
SF-268 CNS = tested on: SF-268 CNS
RPMI-8226 leukemia = tested on: RPMI-8226 leukemia
HCT-116 colon = tested on: HCT-116 colon

CC1=C(O)C(=O)C2C(=O)C1C(C)C2c1ccc(Cl)cc1 (configuration not stated)
TGI (RXF 393 renal): > 100 µM
TGI (OVCAR-4 ovarian): > 100 µM
TGI (K-562 leukemia): > 100 µM
TGI (HCT-15 colon): > 100 µM
TGI (NCI-H226 lung): > 100 µM
TGI (NCI-H522 lung): > 100 µM
TGI (ACHN renal): > 100 µM
TGI (SF-268 CNS): > 100 µM
TGI (RPMI-8226 leukemia): > 100 µM

CC(C)C1CC(O)O[C@@H]([C@@H](C)[C@H]2CC(=O)[C@@H]3[C@@H]4[C@@H](O)[C@H](O)[C@H]5[C@@H](O)[C@H](O)CC[C@]5(C)[C@H]4CC[C@]23C)C1 (some centres not stated)
TGI (RXF 393 renal): 28.9 µM
TGI (OVCAR-4 ovarian): > 100 µM
TGI (K-562 leukemia): > 100 µM
TGI (HCT-116 colon): > 100 µM
TGI (HCT-15 colon): > 100 µM
TGI (NCI-H226 lung): > 100 µM
TGI (NCI-H522 lung): > 100 µM
TGI (ACHN renal): 62.1 µM
TGI (SF-268 CNS): > 100 µM

CCCCCCCCCc1cc(=O)c2ccc(O)cc2o1
TGI (RXF 393 renal): > 100 µM
TGI (OVCAR-4 ovarian): > 100 µM
TGI (K-562 leukemia): > 100 µM
TGI (HCT-116 colon): > 100 µM
TGI (NCI-H226 lung): > 100 µM
TGI (NCI-H522 lung): > 100 µM
TGI (ACHN renal): > 100 µM
TGI (SF-268 CNS): > 100 µM
TGI (RPMI-8226 leukemia): > 100 µM

COc1ccc(-c2cn(-c3ccccc3)c(-c3ccccc3)n2)cc1OC
GI50 (OVCAR-4 ovarian): 10.9 µM
TGI (OVCAR-4 ovarian): 32.9 µM
GI50 (K-562 leukemia): 3.21 µM
TGI (K-562 leukemia): > 100 µM
GI50 (HCT-116 colon): 2.84 µM
TGI (HCT-116 colon): 11.9 µM
GI50 (HCT-15 colon): 2.62 µM
TGI (HCT-15 colon): 11.2 µM
GI50 (NCI-H226 lung): 15 µM
TGI (NCI-H226 lung): 40.3 µM
GI50 (NCI-H522 lung): 6.63 µM
TGI (NCI-H522 lung): 19.6 µM
GI50 (ACHN renal): 9.55 µM
TGI (ACHN renal): 21.4 µM
GI50 (SF-268 CNS): 3.35 µM
TGI (SF-268 CNS): 13.5 µM
GI50 (RPMI-8226 leukemia): 1.31 µM
TGI (RPMI-8226 leukemia): 3.59 µM

O=C1C2=C(c3ccccc31)C(c1ccccc1)NC(=S)N2 (configuration not stated)
TGI (OVCAR-4 ovarian): > 100 µM
TGI (K-562 leukemia): 67.4 µM
TGI (HCT-116 colon): > 100 µM
TGI (HCT-15 colon): > 100 µM
TGI (NCI-H226 lung): > 100 µM
TGI (NCI-H522 lung): > 100 µM
TGI (ACHN renal): > 100 µM
TGI (SF-268 CNS): > 100 µM
TGI (RPMI-8226 leukemia): > 100 µM

CCCCCCCCCCCC[n+]1ccc(CCCCCCCCC)cc1
GI50 (RXF 393 renal): 1.36 µM
TGI (RXF 393 renal): 2.86 µM
GI50 (NCI-H522 lung): 0.695 µM
TGI (NCI-H522 lung): 2.19 µM
GI50 (SF-268 CNS): 1.38 µM
TGI (SF-268 CNS): 2.94 µM

CCCCn1cnc2c(SC)ncnc21
TGI (RXF 393 renal): > 100 µM
TGI (OVCAR-4 ovarian): > 100 µM
TGI (K-562 leukemia): > 100 µM
TGI (HCT-116 colon): > 100 µM
TGI (HCT-15 colon): > 100 µM
TGI (NCI-H522 lung): > 100 µM
TGI (ACHN renal): > 100 µM
TGI (SF-268 CNS): > 100 µM
TGI (RPMI-8226 leukemia): > 100 µM

COc1nc2nccc-2c2occn12
TGI (RXF 393 renal): > 100 µM
TGI (OVCAR-4 ovarian): > 100 µM
TGI (K-562 leukemia): > 100 µM
TGI (HCT-116 colon): > 100 µM
TGI (HCT-15 colon): > 100 µM
TGI (NCI-H522 lung): > 100 µM
TGI (ACHN renal): > 100 µM
TGI (SF-268 CNS): > 100 µM
TGI (RPMI-8226 leukemia): > 100 µM

NC(=O)N1N=C2c3ccccc3SC[C@H]2[C@@H]1c1ccccc1
TGI (RXF 393 renal): 26 µM
TGI (OVCAR-4 ovarian): 73.4 µM
TGI (K-562 leukemia): > 100 µM
TGI (HCT-116 colon): 28.2 µM
TGI (HCT-15 colon): > 100 µM
TGI (NCI-H226 lung): 53.2 µM
TGI (ACHN renal): > 100 µM
TGI (SF-268 CNS): > 100 µM
TGI (RPMI-8226 leukemia): 87.5 µM

COC(=O)C1C2C=CC(C2)N1[C@@H](C)c1ccccc1 (some centres not stated)
TGI (K-562 leukemia): > 100 µM
TGI (HCT-116 colon): > 100 µM
TGI (HCT-15 colon): > 100 µM
TGI (NCI-H522 lung): > 100 µM
TGI (ACHN renal): > 100 µM
TGI (SF-268 CNS): > 100 µM
TGI (RPMI-8226 leukemia): > 100 µM

Fc1ccc2[nH]c3c(NCCCN4CCOCC4)ncnc3c2c1
GI50 (RXF 393 renal): 34.5 µM
TGI (RXF 393 renal): > 100 µM
GI50 (OVCAR-4 ovarian): 65.8 µM
TGI (OVCAR-4 ovarian): > 100 µM
GI50 (K-562 leukemia): 26.2 µM
TGI (K-562 leukemia): > 100 µM
GI50 (HCT-116 colon): 33.7 µM
TGI (HCT-116 colon): > 100 µM
GI50 (HCT-15 colon): 32.1 µM
TGI (HCT-15 colon): > 100 µM
GI50 (NCI-H226 lung): 63.3 µM
TGI (NCI-H226 lung): > 100 µM
GI50 (ACHN renal): 47.5 µM
TGI (ACHN renal): > 100 µM
GI50 (SF-268 CNS): 88.2 µM
TGI (SF-268 CNS): > 100 µM
GI50 (RPMI-8226 leukemia): 31.4 µM
TGI (RPMI-8226 leukemia): > 100 µM
